Reference: patent US10028941B2, “Composition for the management of nausea and vomiting” (DUCHESNAY INC., priority 2013, dated 2018)
“Also recorded” adds a separate entry of the source.

Columns and labels:
[1] = Randomized controlled bioavailability study, three-way cross over, plasma PLP after treatments A, B, C; settings: for speed of increase / time of appearance of PLP in the plasma: given together with Doxylamine and Pyridoxine, R5P 40 mg, AUC 0-2 h
Method: The results depicted in FIGS. 2 and 3 were obtained from randomized controlled bioavailability studies in healthy women, which were carried out as follows.
To characterize the pharmacokinetic profile of Pyridoxal-5′-Phosphate (PLP) and to determine whether Riboflavin-5-phosphate (R5P), PLP or PYL in an immediate release formulation can be used to positively alter the kinetics of PLP compared to the current Diclectin® formulation (the current Diclectin® formulation is a delayed release formulation containing 10 mg Doxylamine succinate and 10 mg Pyridoxine-HCl).
Healthy female (n=12) participants between 18 and 45 years of age with a body mass index between 19 and 30 kg/m^2 were administered the treatments described below under empty stomach (fasted) conditions. Blood sampling was conducted extensively from 1 hour pre-administration until 24 hours post-administration. After a wash-out period of 21 days, dose administration and blood sampling was re-conducted as stated above. Doxylamine, Pyridoxine and Pyridoxine metabolites were measured using liquid chromatography-tandem mass spectrometry, as previously described (Nulman and Koren, Can J Clin Pharmacol Vol 16(3):e400-e406, 2009).
Three Way Cross Over Design.
Diclectin®: delayed release formulation containing 10 mg Doxylamine succinate and 10 mg Pyridoxine-HCl (PA-DR).
Immediate release: an oral solution of 20 mg Doxylamine succinate and 20 mg Pyridoxine-HCl (PA-IR).
Treatment group A: One (1) Diclectin® Tablet (current delayed release formulation of 10 mg Doxylamine and 10 mg Pyridoxine-HCl) plus an oral solution of 10 mg Doxylamine and 10 mg Pyridoxal HCl (immediate release) (PYL);
Treatment group B: One (1) Diclectin® Tablet (current delayed release formulation of 10 mg Doxylamine and 10 mg Pyridoxine-HCl) plus an oral solution of 10 mg Doxylamine and 10 mg Pyridoxal-5′-Phosphate (immediate release) (PLP);
Treatment group C: One (1) Diclectin® Tablet (current delayed release formulation of 10 mg Doxylamine and 10 mg Pyridoxine-HCl) plus an oral solution of 10 mg Doxylamine and 10 mg Pyridoxine HCl and 40 mg Riboflavin-5-phosphate (R5P) (immediate release).
Bioavailability; Tmax, Cmax and AUC0-t between each treatment. Doxylamine, and Pyridoxine and its metabolites were measured using liquid chromatography-tandem mass spectrometry, as previously described (Nulman and Koren, Can J Clin Pharmacol Vol 16 (3):e400-e406, 2009).

[2] = Another study with different doses of R5P (5, 10 or 20 mg), plasma PLP levels vs controls; type: in vivo, human
Method: In another study, different doses of R5P were tested: 5, 10 or 20 mg of R5P (i.e. equivalent to the formulations administered to Treatment group C above, with the exception that 5, 10 or 20 mg of R5P was used rather than 40 mg R5P; 8 healthy women for each dose), and the PLP levels were compared to those measured in control healthy women not administered with R5P (24 subjects, equivalent to Treatment group A above).

[3] = system: nausea and vomiting of pregnancy symptoms; experiment: Randomized controlled efficacy trial of Diclectin vs placebo in pregnant women: plasma levels vs PUQE score; type: in vivo, human; settings: pregnant women treated with Diclectin for 14 days; FIG. 1
Method: A randomized controlled efficacy trial of Diclectin® vs. placebo in pregnant women was carried out as follows, with the results shown in FIG. 1.
To assess the plasma levels of Doxylamine and PLP and the severity of nausea and vomiting of pregnancy symptoms in pregnant women treated with Diclectin®.
The demographic and medical characteristics of the subjects are as described in Koren et al., Am J Obstet Gynecol 2010; 203(6):571.e1-7.
The study design is as described in Koren et al., 2010, supra. Briefly, a randomized, double-blind, multicenter placebo controlled trial studying pregnant women suffering from nausea and vomiting of pregnancy, analyzed by intention to treat. Women received Diclectin (n=131) or placebo (n=125) for 14 days. Nausea and vomiting of pregnancy symptoms were evaluated daily using the pregnancy unique quantification of emesis scale (PUQE-24, Ebrahimi et al., J Obstet Gynaecol Can. 2009 September; 31(9):803-7).

Structure (SMILES): Cc1ncc(CO)c(C=O)c1O [PYL, Pyridoxal]
- speed of increase / time of appearance of PLP in the plasma [1]: did not result in such improvement

Structure (SMILES): Cc1cc2nc3c(=O)[nH]c(=O)nc-3n(C[C@H](O)[C@H](O)[C@H](O)COP(=O)(O)O)c2cc1C [R5P, riboflavin-5-phosphate]
- effect on PLP levels relative to controls ([2]; 5 mg R5P, 8 healthy women, controls without R5P): no significant effect
- effect on PLP levels relative to controls ([2]; 10 mg R5P, 8 healthy women, controls without R5P): no significant effect
- effect on pharmacokinetics of PLP relative to controls ([2]; 20 mg R5P, 8 healthy women, controls without R5P): some improvement in the pharmacokinetics of PLP
- effect with 20 mg R5P compared with 40 mg R5P ([2]; 20 mg vs 40 mg R5P): lower
- inter-subject variations in PLP levels ([1]; administration of R5P): less inter-subject variations
- time to reach steady-state PLP levels ([1]; administration of R5P): decreased time to reach steady-state PLP levels
- speed of increase / time of appearance of PLP in the plasma [1]: faster increase in the plasma level of PLP
- speed of increase / time of appearance of PLP in the plasma ([1]; listed as FMN): faster time of appearance in the plasma
- PLP concentration (AUC) 0-12 h compared with Diclectin (PA-DR) ([1]; healthy women, fasted, one-way ANOVA, FIG. 2): did not increase PLP levels significantly; also recorded: does not significantly affect PLP levels

Structure (SMILES): Cc1ncc(COP(=O)(O)O)c(C=O)c1O [PLP, Pyridoxal 5-phosphate]
- plasma concentration vs severity of NVP (PUQE score) [3]: correlates with a reduction in the severity of NVP

Structure (SMILES): CN(C)CCOC(C)(c1ccccc1)c1ccccn1 (stereo not drawn) [Doxylamine, reference compound]
- plasma concentration vs severity of NVP (PUQE score) [3]: correlates with a reduction in the severity of NVP
